Patent US20100081693A1, “T[…] AND USE THEREOF” (priority 2006, published 2010)
Where two headings read alike, the source gives them in different places.

Columns and labels:
Type in all cases: in vivo
[1] = tested on: Tetranychus urticae; assay: Test Example 4: spray test on Tetranychus urticae on vineless common bean; conditions: 192 h, read-out: Controlling rate (%)
Protocol: Each of present compounds (1) to (3), (5), (17), (39), (55) to (57), (120) to (124), (129), (130), (135), (136), (139) to (141), (232), (236), (243), (255), (262), and the comparative compound (A) was formulated into a preparation according to Preparation Example 5. This preparation was diluted with water so that the concentration of the present compound or the comparative compound (A) became 500 ppm.
Meanwhile, about 60 Tetranychus urticae female imagoes were released on a vineless common bean plantlet (7 days after seeding, first leaf development phase) planted in a plastic cup, which was allowed to stand for 1 day. To this plantlet was sprayed 20 ml of each of the above diluted solutions.
Eight days after spraying, the number of surviving mites on a leaf of the vineless common bean was investigated, and a controlling rate was calculated according to the following equation.
Controlling rate (%)=100×{1−(number of surviving mites of treated group)/(number of surviving mites of non-treated group)}

[2] = tested on: cotton aphids; assay: Test Example 1: spray test on cotton aphids parasitized on cucumber; conditions: 144 h; 500 ppm active ingredient, sprayed on cucumber at 20 ml/cup, six days after spraying; read-out: Controlling value (%)
Protocol: On the other hand, a cucumber was planted in a polyethylene cup, and grown until a first true leaf was developed, and 30 cotton aphids were parasitized thereon. One day after, the test spray solution was sprayed to the cucumber at a ratio of 20 ml/cup. Six days after spraying, the number of cotton aphids was investigated, and a controlling value was calculated according to the following equation.
(§1) Controlling value (%)={1−(Cb×Tai)/(Cai×Tb)}×100
(§2) Cb is the number of worms before treatment of a non-treated group.
(§3) Cai is the number of worms at observation of a non-treated group.
(§4) Tb is the number of worms before treatment of a treated group.
(§5) Tai is the number of worms at observation of a treated group.

[3] = tested on: cotton aphids; assay: Test Example 2: soil immersion treatment of cucumber, cotton aphids inoculated afterwards; conditions: 144 h, 500 ppm test solution (5 ml + 40 ml water), aphids inoculated after 7 days, counted 6 days later, 25° C., read-out: Controlling value (%)
Protocol: Into a beer cup were poured 5 ml of the test diluted solution and 40 ml of water, where a cucumber planted in a polyethylene cup and grown to develop a first true leaf was accommodated, and the soil part was subjected to immersion-treatment. The plant was retained in a greenhouse at 25° C. for 7 days, 30 cotton aphids (all stages) were inoculated on a cucumber leaf surface, the plant was further retained in a greenhouse at 25° C. for 6 days, the number of surviving worms of cotton aphids parasitized on the leaf surface was investigated, and a controlling value was calculated according to the following equation.
as §1, §2, §3, §4, §5

[4] = tested on: tobacco whitefly; assay: Test Example 3: spray test on tobacco whitefly larvae on cabbage; conditions: 168 h, sprayed on cabbage at 20 ml/cup, hatched larvae, seven days after spraying, read-out: Controlling value (%)
[5] = 500 ppm, 20 ml sprayed on common bean plantlet, female imagoes, eight days after spraying

C=CCOc1nc(SC(=O)N(C)C)ns1 [(255)]
pest or weed control at 500 ppm [1, 5]: ≥ 90%

CN(C)C(=O)Sc1nsc(OCc2cccc(Cl)c2Cl)n1 [(99)]
pest or weed control at 500 ppm [2]: ≥ 90%

CCOc1nc(SC(=O)N2CCCC2)ns1 [(136)]
pest or weed control at 500 ppm [1, 5]: ≥ 90%

COCC(COc1nc(SC(=O)N(C)C)ns1)OC (stereo not shown) [(277)]
pest or weed control at 500 ppm [3]: ≥ 90%

CCOC(CCOc1nc(SC(=O)N(C)C)ns1)OCC [(201)]
pest or weed control at 500 ppm [2]: ≥ 90% | pest or weed control at 500 ppm [3]: ≥ 90% | pest or weed control at 500 ppm [4]: ≥ 90%

CN(C)C(=O)Sc1nsc(OC2CCOCC2)n1 [(17)]
pest or weed control at 500 ppm [3]: ≥ 90% | pest or weed control at 500 ppm [4]: ≥ 90% | pest or weed control at 500 ppm [1, 5]: ≥ 90%

COc1nc(SC(=O)N2CCCC2)ns1 [(135)]
pest or weed control at 500 ppm [1, 5]: ≥ 90%

CCCOc1nc(OC(=O)N(C)C)ns1 [comparative compound (A), reference compound]
pest or weed control at 500 ppm [4]: 0% | pest or weed control at 500 ppm [1]: 0%

CN(C)C(=O)Sc1nsc(OCCCn2cccn2)n1 [(19)]
pest or weed control at 500 ppm [3]: ≥ 90%

CN(C)C(=O)Sc1nsc(OCc2ccccc2)n1 [(211)]
pest or weed control at 500 ppm [2]: ≥ 90% | pest or weed control at 500 ppm [4]: ≥ 90%

CN(C)C(=O)Sc1nsc(OCC(F)(F)C(F)(F)F)n1 [(59)]
pest or weed control at 500 ppm [2]: ≥ 90% | pest or weed control at 500 ppm [3]: ≥ 90% | pest or weed control at 500 ppm [4]: ≥ 90%

CCC(Oc1nc(SC(=O)N(C)C)ns1)C(C)(C)C (stereo not shown) [(64)]
pest or weed control at 500 ppm [2]: ≥ 90%

CN(C)C(=O)Sc1nsc(OCC(C)(C)CCl)n1 [(52)]
pest or weed control at 500 ppm [4]: ≥ 90%

CN(C)C(=O)Sc1nsc(OCCC(C)(C)C)n1 [(33)]
pest or weed control at 500 ppm [2]: ≥ 90%

CN(C)C(=O)Sc1nsc(OCC(F)(F)C(F)(F)C(F)(F)F)n1 [(62)]
pest or weed control at 500 ppm [2]: ≥ 90% | pest or weed control at 500 ppm [3]: ≥ 90%

CN(C)C(=O)Sc1nsc(OCc2ccc(Cl)c(Cl)c2)n1 [(103)]
pest or weed control at 500 ppm [2]: ≥ 90%

CC1(C)OCC(COc2nc(SC(=O)N3CCOCC3)ns2)O1 (stereo not shown) [(119)]
pest or weed control at 500 ppm [4]: ≥ 90%

C#CCC(C)Oc1nc(SC(=O)N(C)C)ns1 (stereo not shown) [(38)]
pest or weed control at 500 ppm [4]: ≥ 90%

CN(C)C(=O)Sc1nsc(OCCCOc2nc(SC(=O)N(C)C)ns2)n1 [(204)]
pest or weed control at 500 ppm [2]: ≥ 90%

CN(C)C(=O)Sc1nsc(OCc2ccsc2)n1 [(74)]
pest or weed control at 500 ppm [2]: ≥ 90%

CCOc1nc(SC(=O)N2CCOCC2)ns1 [(122)]
pest or weed control at 500 ppm [4]: ≥ 90%

C#CC(C)Oc1nc(SC(=O)N(C)C)ns1 (stereo not shown) [(39)]
pest or weed control at 500 ppm [4]: ≥ 90% | pest or weed control at 500 ppm [1, 5]: ≥ 90%

CN(C)C(=O)Sc1nsc(OCCOCC(F)(F)F)n1 [(232)]
pest or weed control at 500 ppm [1, 5]: ≥ 90%

CN(C)C(=O)Sc1nsc(OCc2cccc(F)c2)n1 [(79)]
pest or weed control at 500 ppm [3]: ≥ 90%

C#CCOc1nc(SC(=O)N(C)C)ns1 [(7)]
pest or weed control at 500 ppm [4]: ≥ 90%

CN(C)C(=O)Sc1nsc(OCCCl)n1 [(67)]
pest or weed control at 500 ppm [4]: ≥ 90%

COCCOc1nc(SC(=O)N2CCCC2)ns1 [(243)]
pest or weed control at 500 ppm [1, 5]: ≥ 90%

CC#CCOc1nc(SC(=O)N(C)C)ns1 [(8)]
pest or weed control at 500 ppm [4]: ≥ 90%

CN(C)C(=O)Sc1nsc(OCCCCl)n1 [(49)]
pest or weed control at 500 ppm [3]: ≥ 90% | pest or weed control at 500 ppm [4]: ≥ 90%

C[C@H](Oc1nc(SC(=O)N2CCCC2)ns1)[C@H]1COC(C)(C)O1 [(262)]
pest or weed control at 500 ppm [1, 5]: ≥ 90%

CN(C)C(=O)Sc1nsc(OCc2ccc(C(F)(F)F)cc2C(F)(F)F)n1 [(112)]
pest or weed control at 500 ppm [4]: ≥ 90%

Cc1nn(C)c(Oc2nc(SC(=O)N(C)C)ns2)c1C [(218)]
pest or weed control at 500 ppm [3]: ≥ 90%

CCCCOc1nc(SC(=O)N(C)C)ns1 [(5)]
pest or weed control at 500 ppm [4]: ≥ 90% | pest or weed control at 500 ppm [1, 5]: ≥ 90%

CN(C)C(=O)Sc1nsc(OCCCCCl)n1 [(50)]
pest or weed control at 500 ppm [3]: ≥ 90%

CCCOc1nc(SC(=O)N2CCOCC2)ns1 [(120)]
pest or weed control at 500 ppm [4]: ≥ 90%

CC#CCOc1nc(SC(=O)N2CCOCC2)ns1 [(125)]
pest or weed control at 500 ppm [3]: ≥ 90%

CN(C)C(=O)Sc1nsc(OCC(C)(C)C)n1 [(31)]
pest or weed control at 500 ppm [4]: ≥ 90%

O=C(Sc1nsc(OCC2CCOC2)n1)N1CCOCC1 (stereo not shown) [(127)]
pest or weed control at 500 ppm [3]: ≥ 90%

C=CCCCOc1nc(SC(=O)N(C)C)ns1 [(34)]
pest or weed control at 500 ppm [2]: ≥ 90% | pest or weed control at 500 ppm [3]: ≥ 90% | pest or weed control at 500 ppm [4]: ≥ 90%

CN(C)C(=O)Sc1nsc(OCc2ccc(F)c(C(F)(F)F)c2)n1 [(111)]
pest or weed control at 500 ppm [4]: ≥ 90%

CN(C)C(=O)Sc1nsc(OCCOc2nc(SC(=O)N(C)C)ns2)n1 [(225)]
pest or weed control at 500 ppm [2]: ≥ 90%

CN(C)C(=O)Sc1nsc(OCc2c(Cl)cccc2Cl)n1 [(102)]
pest or weed control at 500 ppm [2]: ≥ 90%

O=C(Sc1nsc(Cl)n1)N1CCCC1 [(147)]
pest or weed control at 500 ppm [3]: ≥ 90%

COCC(C)Oc1nc(SC(=O)N(C)C)ns1 (stereo not shown) [(236)]
pest or weed control at 500 ppm [1, 5]: ≥ 90%

O=C(Sc1nsc(OC2COCOC2)n1)N1CCOCC1 [(130)]
pest or weed control at 500 ppm [3]: ≥ 90% | pest or weed control at 500 ppm [1, 5]: ≥ 90%

CC(Oc1nc(SC(=O)N(C)C)ns1)C(F)(F)C(F)(F)F (stereo not shown) [(61)]
pest or weed control at 500 ppm [2]: ≥ 90% | pest or weed control at 500 ppm [3]: ≥ 90% | pest or weed control at 500 ppm [4]: ≥ 90%

O=C(Sc1nsc(OCC2COCO2)n1)N1CCOCC1 (stereo not shown) [(129)]
pest or weed control at 500 ppm [3]: ≥ 90% | pest or weed control at 500 ppm [1, 5]: ≥ 90%

CN(C)C(=O)Sc1nsc(OCc2ccccn2)n1 [(215)]
pest or weed control at 500 ppm [4]: ≥ 90%

CN(C)C(=O)Sc1nsc(OCCCCOc2nc(SC(=O)N(C)C)ns2)n1 [(206)]
pest or weed control at 500 ppm [4]: ≥ 90%
